Legend:
NCI-H23 = test: NCI 60 cell one-dose screening (SRB); format: cell-based; conditions: Homo sapiens; NCI-H23, Non-Small Cell Lung Cancer; single dose 10 µM, 48 h; read-out: Percentage of cellular growth inhibition
Procedure, shortened: (§1)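 Inhibition percentages derive from SRB-stained cell mass: growth relative to no-drug wells, computed as (Ti−Tz)/(C−Tz)×100, or (Ti−Tz)/Tz×100 when Ti<Tz, then subtracted from 100. Compound level was 10 µM for 48 h in RPMI 1640 medium with 5% serum.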

MDA-MB-435 = test: NCI 60 cell one-dose screening (SRB); format: cell-based; conditions: Homo sapiens; MDA-MB-435, Melanoma; single dose 10 µM, 48 h; read-out: Percentage of cellular growth inhibition
Procedure, shortened: as §1

SK-MEL-5 = test: NCI 60 cell one-dose screening (SRB); format: cell-based; conditions: Homo sapiens; SK-MEL-5, Melanoma; single dose 10 µM, 48 h; read-out: Percentage of cellular growth inhibition
Procedure, shortened: as §1

MDA-MB-468 = test: NCI 60 cell one-dose screening (SRB); format: cell-based; conditions: Homo sapiens; MDA-MB-468, Breast Cancer; single dose 10 µM, 48 h; read-out: Percentage of cellular growth inhibition
Procedure, shortened: as §1

T-47D = test: NCI 60 cell one-dose screening (SRB); format: cell-based; conditions: Homo sapiens, T47D, 48 h, Breast Cancer, single dose 10 µM, read-out: Percentage of cellular growth inhibition
Procedure, shortened: as §1

OVCAR-3 = test: NCI 60 cell one-dose screening (SRB); format: cell-based; conditions: Homo sapiens; OVCAR-3, Ovarian Cancer; single dose 10 µM, 48 h; read-out: Percentage of cellular growth inhibition
Procedure, shortened: as §1

NCI-H460 = test: NCI 60 cell one-dose screening (SRB); format: cell-based; conditions: Homo sapiens; NCI-H460, Non-Small Cell Lung Cancer; single dose 10 µM, 48 h; read-out: Percentage of cellular growth inhibition
Procedure, shortened: as §1

NCI-H522 = test: NCI 60 cell one-dose screening (SRB); format: cell-based; conditions: Homo sapiens; NCI-H522, Non-Small Cell Lung Cancer; single dose 10 µM, 48 h; read-out: Percentage of cellular growth inhibition
Procedure, shortened: as §1

COLO 205 = test: NCI 60 cell one-dose screening (SRB); format: cell-based; conditions: Homo sapiens; COLO 205, Colon Cancer; single dose 10 µM, 48 h; read-out: Percentage of cellular growth inhibition
Procedure, shortened: as §1

SK-MEL-2 = test: NCI 60 cell one-dose screening (SRB); format: cell-based; conditions: Homo sapiens; SK-MEL-2, Melanoma; single dose 10 µM, 48 h; read-out: Percentage of cellular growth inhibition
Procedure, shortened: as §1

TK-10 = test: NCI 60 cell one-dose screening (SRB); format: cell-based; conditions: Homo sapiens; TK-10, Renal Cancer; single dose 10 µM, 48 h; read-out: Percentage of cellular growth inhibition
Procedure, shortened: as §1

MCF7 = test: NCI 60 cell one-dose screening (SRB); format: cell-based; conditions: Homo sapiens; MCF7, Breast Cancer; single dose 10 µM, 48 h; read-out: Percentage of cellular growth inhibition
Procedure, shortened: as §1

HS 578T = test: NCI 60 cell one-dose screening (SRB); format: cell-based; conditions: Homo sapiens, Breast Cancer, single dose 10 µM, 48 h, read-out: Percentage of cellular growth inhibition
Procedure, shortened: as §1

SF-295 = test: NCI 60 cell one-dose screening (SRB); format: cell-based; conditions: Homo sapiens; SF-295, CNS Cancer; single dose 10 µM, 48 h; read-out: Percentage of cellular growth inhibition
Procedure, shortened: as §1

RXF 393 = test: NCI 60 cell one-dose screening (SRB); format: cell-based; conditions: Homo sapiens; RXF 393, Renal Cancer; single dose 10 µM, 48 h; read-out: Percentage of cellular growth inhibition
Procedure, shortened: as §1

SK-OV-3 = test: NCI 60 cell one-dose screening (SRB); format: cell-based; conditions: Homo sapiens; SK-OV-3, Ovarian Cancer; single dose 10 µM, 48 h; read-out: Percentage of cellular growth inhibition
Procedure, shortened: as §1

[1] = tested on: Breast T47D cancer cell line; test: In vitro inhibition concentration of breast T47D cancer cell line; format: cell-based; conditions: Homo sapiens
Description: Cells were seeded and treated with a range of inhibitors concentration 39–10,000 nM after 24 h relative to DMSO. […]

LOX IMVI = test: NCI 60 cell one-dose screening (SRB); format: cell-based; conditions: Homo sapiens, Melanoma, single dose 10 µM, 48 h, read-out: Percentage of cellular growth inhibition
Procedure, shortened: as §1

SR = test: NCI 60 cell one-dose screening (SRB); format: cell-based; conditions: Homo sapiens, Leukemia, single dose 10 µM, 48 h, read-out: Percentage of cellular growth inhibition
Procedure, shortened: as §1

Row | Structure (SMILES) | inhibition at 10 µM (MDA-MB-435) [%] | inhibition at 10 µM (SK-MEL-5) [%] | inhibition at 10 µM (MDA-MB-468) [%] | inhibition at 10 µM (T-47D) [%] | inhibition at 10 µM (OVCAR-3) [%] | inhibition at 10 µM (NCI-H460) [%] | inhibition at 10 µM (NCI-H522) [%] | inhibition at 10 µM (COLO 205) [%] | inhibition at 10 µM (SK-MEL-2) [%] | inhibition at 10 µM (TK-10) [%] | inhibition at 10 µM (MCF7) [%] | inhibition at 10 µM (HS 578T) [%] | inhibition at 10 µM (SF-295) [%] | inhibition at 10 µM (RXF 393) [%] | inhibition at 10 µM (SK-OV-3) [%] | IC50 ([1]; 48 h) [µM] | IC50 ([1]; 96 h) [µM] | melting point [°C] | inhibition at 10 µM (LOX IMVI) [%] | inhibition at 10 µM (SR) [%] | also measured
1 | Cc1nc(Nc2cccc(Nc3nc(C)c(N=Nc4ccccc4)s3)c2)sc1N=Nc1ccccc1 [5a, N^1,N^3-bis(4-methyl-5-(phenyldiazenyl)thiazol-2-yl)benzene-1,3-diamine] | 7.9 | 8.5 | 29.4 | 48 | 26 | 3.2 | 30.7 | -4.9 | -6.7 | 2.9 | 52.4 | 19.8 | 13.6 | -4.4 | -6.6 | 10.4 | 4.35 | 115 to 116 |  |  | inhibition at 10 µM (NCI-H23): 14.7%
2 | c1ccc(-c2csc(Nc3cccc(Nc4nc(-c5ccccc5)cs4)c3)n2)cc1 [6a, N^1,N^3-bis(4-phenylthiazol-2-yl)benzene-1,3-diamine] | 55.3 | 79 | 60.8 |  | 46.8 | 73.1 | 88.6 | 16.5 | 35.1 | 31.4 | 84.4 | 43.5 | 62.4 | 36.2 | 2.5 | 6.58 | 1.78 | 92 to 94 |  |  | inhibition at 10 µM (NCI-H23): 63.2%
3 | Fc1ccc(-c2csc(Nc3cccc(Nc4nc(-c5ccc(F)cc5)cs4)c3)n2)cc1 [6b, N^1,N^3-bis(4–(4-fluorophenyl)thiazol-2-yl)benzene-1,3-diamine] | 36.9 | 38.8 | 61.4 |  | 42.5 | 59.6 | 93.8 | 24.3 | 65.3 | 5.5 | 75.3 | 30.7 | 9.6 | 24.5 | 13.2 | 5.92 | 1.61 | 80 to 83 | 60.7 | 48.6 | 
4 | c1ccc(/N=c2\scc(-c3ccccc3)n2-c2cccc(-n3c(-c4ccccc4)cs/c3=N\c3ccccc3)c2)cc1 [8a, N,N’-(3,3’-(1,3-phenylene)bis(4-phenylthiazole-3(3H)-yl-2(3H)-ylidene))dianiline] | 1 | 4 | 9 | 10.2 | -3.6 | -6.3 | 12.2 | -21.3 | 12.6 | -38.8 | 18 | 4.2 | -22.4 | 10.3 | -34.8 |  |  | 110 to 111 | 22.6 | 6.1 | 
5 | Fc1ccc(-c2cs/c(=N\c3ccccc3)n2-c2cccc(-n3c(-c4ccc(F)cc4)cs/c3=N\c3ccccc3)c2)cc1 [8b, N,N’-(3,3’-(1,3-phenylene)bis(4–(4-fluorophenyl)thiazole-3(3H)-yl-2(3H)-ylidene))dianiline] | 13.1 | 9.3 | 51.2 | 51 | 4.1 | 37.5 | 41.6 | -0.4 | 22.2 | -16.6 | 42.9 | 13.4 | -18.8 | 11.6 | -15.4 | 9.8 | 2.61 |  | 23.9 | 36.1 | 
6 | Clc1ccc(-c2cs/c(=N\c3ccccc3)n2-c2cccc(-n3c(-c4ccc(Cl)cc4)cs/c3=N\c3ccccc3)c2)cc1 [8c, N,N’-(3,3’-(1,3-phenylene)bis(4–(4-chlorophenyl)thiazole-3(3H)-yl-2(3H)-ylidene))dianiline] | 5.4 | 3.1 | 35.4 | 8.9 | -6.6 | 0.1 | 42.2 | 17.2 | -9.6 | -14.1 | 23.4 | 10.4 | -17.9 | 8.4 | -29.4 |  |  | 120 to 121 | 50.6 | 12.1 | 

Reference: article PMC9897788, “Design, synthesis and cytotoxic evaluation of novel bis-thiazole derivatives as preferential Pim1 kinase inhibitors with in vivo and in silico study” (Journal of Enzyme Inhibition and Medicinal Chemistry, 2023)
